Source: ChEMBL document CHEMBL1201862, “PubChem BioAssay data set” (2004)
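Test compounds were applied to cells in 96-well plates for 48 hours at 5 doses. At the GI50, growth is halved.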 Activity calls are given as the source filed them. Rule as the data show it: active = GI50 up to about 1.1 µM and inactive = higher.

How the values were obtained:
Assay in all cases: NCI-60 cell line screen, 48 h
NCI-H522 = system: NCI-H522
HOP-92 = system: HOP-92
UACC-257 = system: UACC-257
CCRF-CEM = system: CCRF-CEM
SW-620 = system: SW-620
KM12 = system: KM12
COLO 205 = system: COLO 205
NCI/ADR-RES = system: NCI/ADR-RES
T47D = system: T47D
OVCAR-3 = system: OVCAR-3
A498 = system: A498
SNB-19 = system: SNB-19
MCF7 = system: MCF7
SN12C = system: SN12C
K562 = system: K562
786-0 = system: 786-0
OVCAR-5 = system: OVCAR-5
HCT-15 = system: HCT-15
Hs-578T = system: Hs-578T
NCI-H460 = system: NCI-H460
EKVX = system: EKVX
DU-145 = system: DU-145
U-251 = system: U-251
SF-295 = system: SF-295
CAKI-1 = system: CAKI-1
UACC-62 = system: UACC-62
OVCAR-8 = system: OVCAR-8
SF-539 = system: SF-539
MDA-MB-435 = system: MDA-MB-435
RPMI-8226 = system: RPMI-8226
TK-10 = system: TK-10
A549 = system: A549
NCI-H23 = system: NCI-H23
HCC 2998 = system: HCC 2998
HL-60 = system: HL-60
HT-29 = system: HT-29
LOX IMVI = system: LOX IMVI
OVCAR-4 = system: OVCAR-4
MOLT-4 = system: MOLT-4
IGROV-1 = system: IGROV-1
HCT-116 = system: HCT-116
UO-31 = system: UO-31
ACHN = system: ACHN
SR = system: SR
BT-549 = system: BT-549
RXF 393 = system: RXF 393
M14 = system: M14
SK-MEL-2 = system: SK-MEL-2
SK-MEL-5 = system: SK-MEL-5
NCI-H226 = system: NCI-H226
SF-268 = system: SF-268
PC-3 = system: PC-3
HOP-62 = system: HOP-62
MDA-MB-231 = system: MDA-MB-231
SK-MEL-28 = system: SK-MEL-28
SK-OV-3 = system: SK-OV-3
SNB-75 = system: SNB-75
Malme-3M = system: Malme-3M
MDA-N = system: MDA-N

Structure (SMILES): O=c1oc2ccccc2c2c1Sc1ccccc1N2
- GI50 (NCI-H522): > 100 µM (inactive)
- GI50 (HOP-92): 12.7 µM (inactive)
- GI50 (UACC-257): > 100 µM (inactive)
- GI50 (CCRF-CEM): 75.9 µM (inactive)
- GI50 (SW-620): > 100 µM (inactive)
- GI50 (KM12): 70.5 µM (inactive)
- GI50 (COLO 205): > 100 µM (inactive)
- GI50 (NCI/ADR-RES): > 100 µM (inactive)
- GI50 (T47D): 0.897 µM (active)
- GI50 (OVCAR-3): 68.9 µM (inactive)
- GI50 (A498): > 100 µM (inactive)
- GI50 (SNB-19): > 100 µM (inactive)
- GI50 (MCF7): 71.3 µM (inactive)
- GI50 (SN12C): > 100 µM (inactive)
- GI50 (K562): > 100 µM (inactive)
- GI50 (786-0): > 100 µM (inactive)
- GI50 (OVCAR-5): > 100 µM (inactive)
- GI50 (HCT-15): 36.2 µM
- GI50 (Hs-578T): > 100 µM (inactive)
- GI50 (NCI-H460): 92.9 µM (inactive)
- GI50 (EKVX): 62.2 µM (inactive)
- GI50 (DU-145): > 100 µM (inactive)
- GI50 (U-251): 58.3 µM (inactive)
- GI50 (SF-295): > 100 µM (inactive)
- GI50 (CAKI-1): > 100 µM (inactive)
- GI50 (UACC-62): 50.1 µM (inactive)
- GI50 (OVCAR-8): > 100 µM (inactive)
- GI50 (SF-539): > 100 µM (inactive)
- GI50 (MDA-MB-435): 96.4 µM (inactive)
- GI50 (RPMI-8226): 47.2 µM (inactive)
- GI50 (TK-10): > 100 µM (inactive)
- GI50 (A549): > 10 µM (inactive)
- GI50 (NCI-H23): 74.8 µM (inactive)
- GI50 (HCC 2998): 53 µM (inactive)
- GI50 (HL-60): > 100 µM (inactive)
- GI50 (HT-29): > 100 µM (inactive)
- GI50 (LOX IMVI): > 100 µM (inactive)
- GI50 (OVCAR-4): 22.8 µM (inactive)
- GI50 (MOLT-4): 63.4 µM (inactive)
- GI50 (IGROV-1): > 100 µM (inactive)
- GI50 (HCT-116): 89.3 µM (inactive)
- GI50 (UO-31): > 100 µM (inactive)
- GI50 (ACHN): > 100 µM (inactive)
- GI50 (SR): 53.6 µM (inactive)
- GI50 (BT-549): > 100 µM (inactive)
- GI50 (RXF 393): 64.9 µM (inactive)
- GI50 (M14): > 100 µM (inactive)
- GI50 (SK-MEL-2): 2.58 µM (inactive)
- GI50 (SK-MEL-5): 48.9 µM (inactive)
- GI50 (NCI-H226): 82.4 µM (inactive)
- GI50 (SF-268): 56.6 µM (inactive)
- GI50 (PC-3): > 100 µM (inactive)
- GI50 (HOP-62): > 100 µM (inactive)
- GI50 (MDA-MB-231): 85.5 µM (inactive)
- GI50 (SK-MEL-28): > 100 µM (inactive)

Structure (SMILES): O=C(CCC1CCCCC1)NCc1ccc(C(=O)O)cc1
- GI50 (SK-OV-3): > 100 µM (inactive)
- GI50 (NCI-H522): > 100 µM (inactive)
- GI50 (HOP-92): > 100 µM (inactive)
- GI50 (UACC-257): > 100 µM (inactive)
- GI50 (SNB-75): > 100 µM (inactive)
- GI50 (CCRF-CEM): 47.1 µM (inactive)
- GI50 (SW-620): > 100 µM (inactive)
- GI50 (KM12): > 100 µM (inactive)
- GI50 (COLO 205): > 100 µM (inactive)
- GI50 (NCI/ADR-RES): > 100 µM (inactive)
- GI50 (T47D): > 100 µM (inactive)
- GI50 (Malme-3M): > 100 µM (inactive)
- GI50 (OVCAR-3): > 100 µM (inactive)
- GI50 (A498): > 100 µM (inactive)
- GI50 (SNB-19): > 100 µM (inactive)
- GI50 (MCF7): > 100 µM (inactive)
- GI50 (SN12C): > 100 µM (inactive)
- GI50 (K562): > 100 µM (inactive)
- GI50 (786-0): > 100 µM (inactive)
- GI50 (OVCAR-5): > 100 µM (inactive)
- GI50 (HCT-15): > 100 µM
- GI50 (NCI-H460): > 100 µM (inactive)
- GI50 (EKVX): 56.9 µM (inactive)
- GI50 (DU-145): > 100 µM (inactive)
- GI50 (U-251): > 100 µM (inactive)
- GI50 (SF-295): > 100 µM (inactive)
- GI50 (CAKI-1): > 100 µM (inactive)
- GI50 (UACC-62): > 100 µM (inactive)
- GI50 (OVCAR-8): > 100 µM (inactive)
- GI50 (SF-539): > 100 µM (inactive)
- GI50 (MDA-MB-435): > 100 µM (inactive)
- GI50 (RPMI-8226): > 100 µM (inactive)
- GI50 (TK-10): > 100 µM (inactive)
- GI50 (A549): > 100 µM (inactive)
- GI50 (NCI-H23): > 100 µM (inactive)
- GI50 (HCC 2998): > 100 µM (inactive)
- GI50 (HT-29): > 100 µM (inactive)
- GI50 (LOX IMVI): > 100 µM (inactive)
- GI50 (OVCAR-4): > 100 µM (inactive)
- GI50 (MOLT-4): > 100 µM (inactive)
- GI50 (MDA-N): > 100 µM (inactive)
- GI50 (IGROV-1): > 100 µM (inactive)
- GI50 (HCT-116): > 100 µM (inactive)
- GI50 (UO-31): > 100 µM (inactive)
- GI50 (ACHN): > 100 µM (inactive)
- GI50 (SR): > 100 µM (inactive)
- GI50 (BT-549): > 100 µM (inactive)
- GI50 (RXF 393): > 100 µM (inactive)
- GI50 (M14): > 100 µM (inactive)
- GI50 (SK-MEL-2): > 100 µM (inactive)
- GI50 (SK-MEL-5): > 100 µM (inactive)
- GI50 (NCI-H226): > 100 µM (inactive)
- GI50 (SF-268): > 100 µM (inactive)
- GI50 (PC-3): > 100 µM (inactive)
- GI50 (HOP-62): > 100 µM (inactive)
- GI50 (MDA-MB-231): > 100 µM (inactive)
- GI50 (SK-MEL-28): > 100 µM (inactive)
